Data on 2 molecules can be found in US20250205206A1, “USE OF DEXPRAMIPEXOLE FOR THE TREATMENT OF INADEQUATELY CONTROLLED MODERATE TO SEVERE ASTHMA” (Areteia Therapeutics, Inc., priority 2023, published 2025).

Where two headings read alike, the source gives them in different places.

Data set [1] concerns moderate to severe asthma. As to the kind of experiment: Phase II dose finding study in moderate to severe asthma (EXHALE).
Data set [2] has as its system subjects with eosinophilic chronic rhinosinusitis with nasal polyps. The following applies: cited from earlier work; for total polyp score (TPS), mean value: baseline 5.29.
Data set [3] deals with Chronic rhinosinusitis with nasal polyps. The note with it: in vivo; cited from earlier work.
[4] abbreviates: 150 mg twice daily, 6 month trial.
The mark [5] stands for this setting: 150 mg twice daily, 12 subjects with a history of asthma.

`CCCN[C@@H]1CCc2nc(N)sc2C1` [dexpramipexole, (6R)-2-amino-4,5,6,7-tetrahydro-6-(propylamino)benzothiazole]: the “safety and tolerability profile” value in data set [1] (Phase II, compared with placebo) is given as “tolerability profile of dexpramipexole in this Phase II study was similar to”. In addition, the “eosinophils in blood and airways” value in data set [1] (Phase II, moderate to severe asthma) was “significant, dose-dependent, and durable reductions”. Besides, in data set [1] (across the dose groups at various timepoints), the “placebo-corrected change from baseline in pre-bronchodilator (pre-BD) FEV1” value was “clinically meaningful, placebo-corrected, change from baseline in pre-”. In addition, in data set [2] (150 mg twice daily, 3 months), the “total polyp score (TPS), mean value” is 5.50. Besides, in data set [2] (setting [4]), the “SNOT-22 (rhinosinusitis symptoms)” value is on record as “not improved”, the “Sniffin Sticks olfaction test” value is “not improved” and the “sinus CT score” value is reported as “not improved”. In addition, the “total polyp score (TPS), mean value” in data set [2] (150 mg twice daily, 6 months) is on record as 5.42. In data set [2] (setting [5]), the ACQ6 value entry is given as “unchanged” and the FEV1 value entry is “unchanged”. For the same molecule, the “lowering of the AEC (blood absolute eosinophil count)” value in data set [2] (dexpramipexole 150 mg twice daily, after 6 months, 16 subjects) is 94%.

B1: mepolizumab: eosinophil lowering drug; monoclonal antibody administered subcutaneously for asthma (antibody, chains of the INN, looked up, V domains shown)
VH: QVTLRESGPALVKPTQTLTLTCTVSGFSLTSYSVHWVRQPPGKGLEWLGVIWASGGTDYNSALMSRLSISKDTSRNQVVLTMTNMDPVDTATYYCARDPPSSLLRLDYWGRGTPVTVSS
VL: DIVMTQSPDSLAVSLGERATINCKSSQSLLNSGNQKNYLAWYQQKPGQPPKLLIYGASTRESGVPDRFSGSGSGTDFTLTISSLQAEDVAVYYCQNVHSFPFTFGGGTKLEIK
Take B1: the “efficacy in chronic rhinosinusitis with nasal polyps” value in data set [3] is “have shown efficacy”.
